Assay results: US20060269482A1 (priority 2005, published 2006)
Where two headings read alike, the source gives them in different places.

What was measured:
[1] = tested on: retinoblastoma protein (Rb) phosphorylation in HCT116 cells; test: Rb phosphorylation in HCT116 cells by Western blot and ELISA; type: cell-based, human; conditions: HCT116, 20 hours, 0.1, 0.2 and 0.6 μM
Protocol: Cells were washed 3 times with cold PBS on ice and scraped from the flasks. All cells were collected in 15 ml tubes. Cells were pelleted by centrifugation and lysis buffer was added (1:1 PBS: 2× Tris-Glycine SDS Sample Buffer (Invitrogen, Carlsbad, Calif.) containing 5% 2-β mercaptoethanol). The volume of lysis buffer used was 5 ul per 1×10^6 cells. Samples were sonicated for 30 seconds on ice. Following sonication, samples were clarified by centrifugation at 16,000×g for 10 minutes at 4° C. and protein concentrations were determined using Non-Interfering Protein Assay Kit (Geno Technology Incorporated, Maplewood, Mo.). Proteins were denatured by boiling for 5 minutes and centrifuged as described above. […] For Western blotting, total Rb was detected using antibody from Pharmingen (BD Bioscience, San Diego, Calif.) at a dilution of 1:2000. The phosphorylation status of Rb at serine 780, serine 795 and serine 807/811 was detected with phosphospecific antibodies at dilutions of 1:1000 (Cell Signaling Technology, Beverly, Mass.). […]
HCT116 cells were treated for 20 hours at the IC50 (0.1 μM), IC90 (0.2 μM) and 3×IC90 (0.6 μM) concentrations for cell growth inhibition, as determined in a 5-day proliferation assay. Lysates were analyzed by Western blotting for Rb phosphorylation at serine 795 and serine 780 (FIG. 1). […]

[2] = tested on: retinoblastoma protein (Rb) phosphorylation in MTLn3 cells; test: Rb phosphorylation in MTLn3 cells by Western blot; type: cell-based, rat; conditions: MTLn3, 20 hours, 0.17, 0.24 and 0.72 μM
Protocol: Cells were washed 3 times with cold PBS on ice and scraped from the flasks. All cells were collected in 15 ml tubes. Cells were pelleted by centrifugation and lysis buffer was added (1:1 PBS: 2× Tris-Glycine SDS Sample Buffer (Invitrogen, Carlsbad, Calif.) containing 5% 2-β mercaptoethanol). The volume of lysis buffer used was 5 ul per 1×10^6 cells. Samples were sonicated for 30 seconds on ice. Following sonication, samples were clarified by centrifugation at 16,000×g for 10 minutes at 4° C. and protein concentrations were determined using Non-Interfering Protein Assay Kit (Geno Technology Incorporated, Maplewood, Mo.). Proteins were denatured by boiling for 5 minutes and centrifuged as described above. […] For Western blotting, total Rb was detected using antibody from Pharmingen (BD Bioscience, San Diego, Calif.) at a dilution of 1:2000. The phosphorylation status of Rb at serine 780, serine 795 and serine 807/811 was detected with phosphospecific antibodies at dilutions of 1:1000 (Cell Signaling Technology, Beverly, Mass.).
Lysates were analyzed by Western blotting for Rb phosphorylation using polyclonal antibodies prepared against a peptide corresponding to sequences surrounding phosphorylated serine 807/811 in human Rb (FIG. 3).

[3] = Plasma and tumor exposures after a single oral dose; type: in vivo, rat
Protocol: Female Fischer rats obtained from Charles River Laboratories were used when they were ˜13-15 weeks old and weighed ˜150 grams. All animals were examined prior to the initiation of studies to ensure that they were healthy and acclimated to the laboratory environment. Autoclaved water and irradiated food were provided ad libitum, and the animals were maintained in a 12 hour light and dark cycle.
The test compound COMPOUND A, [4-amino-2-(1-methanesulfonylpiperidin-4-ylamino) pyrimidin-5-yl]-(2,3-difluoro-6-methoxyphenyl)methanone, was synthesized by Discovery Chemistry, Hoffmann-La Roche Inc. COMPOUND A was formulated as a suspension in 1% Klucel LF with 0.1% Tween 80 for oral injection. Compound was stored at 4° C. and vortexed immediately prior to administration.
The dose selected was 80 mg/kg, determined to be an efficacious dose in this animal model. Tumor growth inhibition in the MTLn3 xenograft model after 2 to 3 weeks of oral dosing at 80 mg/kg once weekly averaged 90% with 2/10 complete regressions. COMPOUND A was dosed on day 10 post implantation of cells, at which time the tumors were 100-200 mm^3 in size. In this pharmacokinetic/pharmacodynamic experiment, plasma and tumors were collected at 1, 2, 6, 24 and 72 hours post dosing of a single oral dose of COMPOUND A. Tumors were removed and immediately snap frozen in liquid nitrogen and stored at −80° C. until drug concentration analysis. Untreated and vehicle treated control groups were included in the analysis. Concentrations of COMPOUND A in plasma and tumors were determined in the same three animals per time point. Whole blood was also collected for analysis of Rb phosphorylation. Peripheral blood mononuclear cells (PBMCs) were isolated, stimulated ex vivo with mitogen and analyzed by Western blot as described below.
In a second pharmacodynamic study, plasma concentrations of COMPOUND A were similarly analyzed as described above, and Rb phosphorylation in both PBMCs and tumor xenografts treated with a single oral dose of COMPOUND A was examined.
After a single oral dose of 80 mg/kg, plasma and tumor tissues show a similar concentration time profile of COMPOUND A. Maximum concentrations in both plasma and tumor tissue were observed 1 hr post dose. The concentrations in the tumor samples taken from the same animals were approximately 50% of the plasma concentration and at 24 hrs tumor drug levels (164±28 ng/g) approximated plasma exposures at 24 hours (250±74 ng/ml) (FIG. 7). Drug levels in plasma and tumor tissue were measurable up to 24 hrs after dosing in all the animals in PD 664 (3 rats per time point). […] Overall the plasma data seem fairly predictive for tumor concentrations particularly since the extraction of drug from the tumor samples might be less than complete. No drug was detectable in the vehicle group.
Similarly in PD 675, after a single 80 mg/kg oral dose of COMPOUND A, drug was measurable in all the animals up to 6 hrs (339±88 ng/ml) and in ⅔ animals 24 hr and 48 hr after dosing. Mean plasma concentrations were steady from 1-24 hr. No drug was detectable in the vehicle group.

[4] = single oral dose 80 mg/kg, rat, PD 664

concentration at 6 h ([3]; female, Fischer, rat, plasma, single 80 mg/kg oral dose, PD 675, 6 hrs): 339 ± 88 ng/mL
concentration at 24 h ([3]; female, Fischer, rat, plasma, single oral dose 80 mg/kg, 24 hours, PD 664, read-out: Plasma exposure at 24 hours): 250 ± 74 ng/mL
concentration at 72 h ([3]; female, Fischer, rat, plasma, single oral dose 80 mg/kg, PD 664, one out of three animals measurable): ≥ 12.5 ng/mL
Kp ([3]; female, Fischer, rat, tumor / plasma, single oral dose 80 mg/kg, same animals, PD 664, read-out: Tumor concentration as percent of plasma concentration): ~0.5
concentration at 24 h ([3]; female, Fischer, rat, tumor, single oral dose 80 mg/kg, 24 hrs, PD 664, read-out: Tumor drug level at 24 hrs): 164 ± 28 ng/g
Time up to which drug levels in plasma and tumor tissue were measurable in all animals ([3]; single oral dose 80 mg/kg, PD 664, 3 rats per time point): up to 24 hrs
Time of maximum concentration in plasma [3, 4]: 1 h
Time of maximum concentration in tumor tissue [3, 4]: 1 h
Structure (SMILES): COc1ccc(F)c(F)c1C(=O)c1cnc(NC2CCN(S(C)(=O)=O)CC2)nc1N [COMPOUND A, [4-amino-2-(1-methanesulfonylpiperidin-4-ylamino)pyrimidin-5-yl]-(2,3-difluoro-6-methoxyphenyl)methanone]
Rb phosphorylation at serine 795, serine 780 (Western blot) and threonine 821 (ELISA) [1]: inhibition of phosphorylation at all three CDK phosphorylation sites in a concentration-dependent fashion
Rb phosphorylation at epitope recognized by anti-phospho-serine 807/811 antibody [2]: inhibition of phosphorylation
